In patent US5556859A, “N-(4-pyrimidinyl)amide pesticides” (DowElanco, priority 1994, dated 1996):

How the values were obtained:
[1] = system: tobacco budworm (Heliothis virescens); test: Activity against tobacco budworm (TBW); assay type: in vivo; conditions: 144 h, read-out: percent mortality, TBW
Protocol: In conducting evaluations of insecticidal activity, each test compound was formulated as a 400 ppm solution, and this solution was then diluted with water to give lesser concentrations. The 400 ppm solution was prepared by combining 19.2 mL of 0.05% solution of Tween 20 (polyoxyethylene (20) sorbitan monolaurate) in water with a solution of 8 mg of the compound in 0.8 mL of acetone/EtOH (9/1).
Activity against tobacco budworm (Heliothis virescens) was evaluated as follows. A general purpose lepidoptera artificial diet was diluted to half strength with a 5% non nutritive agar. 8 mL of this diet material was dispensed into each one ounce diet cup. One hour prior to treatment 18 to 20 eggs were dispensed onto the diet surface. The cups were then sprayed with formulated material through a flat-fan nozzle. The test was run using concentrations of 400 ppm and 50 ppm. Treated cups were air dried prior to sealing with plastic caps. The cups were held for 6 days at room temperature. Activity was then rated based on the total number of live and dead larvae, and on the size of live larvae.

[2] = system: beet armyworm (Spodoptera exiqua); test: whole plant or invertebrate; conditions: 144 h, read-out: percent mortality, BAW
[3] = system: cotton aphid (Aphis gossypii); test: whole plant or invertebrate; conditions: 72 h, read-out: percent mortality, CA
[4] = system: peanut root knot nematode (Meloidogyne arenaria); test: whole plant or invertebrate; conditions: in Arachis hypogaea, read-out: percent mortality, RKN
[5] = system: Southern corn rootworm (Diabrotica undecimpuctata howardi Barber); test: whole plant or invertebrate; conditions: in Zea mays, soil, read-out: percent mortality, SCRW
[6] = system: two spotted spider mite (Tetranychus urticae); test: whole plant or invertebrate; conditions: 72 h, read-out: percent mortality, TSSM
[7] = system: German cockroach (Blattella germanicus); test: whole plant or invertebrate; conditions: 240 h, read-out: percent mortality, GECR

| Structure (SMILES) | mortality at 400 ppm [1] | mortality at 400 ppm [2] | mortality at 400 ppm [3] | mortality at 400 ppm [4] | mortality at 24 µg/g [5] | mortality at 400 ppm [6] | mortality at 400 ppm [7] |
| --- | --- | --- | --- | --- | --- | --- | --- |
| CCc1nccc(NC(=O)Cc2ccc(Oc3ccc(Cl)cc3)cc2)n1 [Compound 17, 4-(4-chlorophenoxy)phenyl-N-(2-ethyl-4-pyrimidinyl)acetamide] | 100% | 100% | 100% | 100% | 100% | 100% | 100% |
| CCCc1nccc(NC(=O)Cc2ccc(OCC(F)(F)F)cc2)n1 [Compound 18, 4-(2,2,2-trifluroethoxy)phenyl-N-(2-propyl-4-pyrimidinyl)acetamide] | 80% | 100% | 100% | 100% | 0% | 80% | 20% |
| CCCc1nccc(NC(=O)Cc2ccc(Oc3ccc(F)cc3)cc2)n1 [Compound 19, 4-(4-fluorophenoxy)phenyl-N-(2-propyl-4-pyrimidinyl)acetamide] | 100% | 100% | 100% | 100% | 100% | 100% | 100% |
| CCCCc1nccc(NC(=O)Cc2ccc(OCC(F)(F)F)cc2)n1 [Compound 20, 4-(2,2,2-trifluroethoxy)phenyl-N-(2-butyl-4-pyrimidinyl)acetamide] | 0% | 100% | 0% | 80% | 100% | 0% | 0% |
| CCCCc1nccc(NC(=O)Cc2ccc(Oc3ccc(F)cc3)cc2)n1 [Compound 21, 4-(4-fluorophenoxy)phenyl-N-(2-butyl-4-pyrimidinyl)acetamide] | 100% | 100% | 100% | 90% | 0% | 100% | 100% |
| O=C(Cc1ccc(OCC(F)(F)F)cc1)Nc1ccnc(C2CCC2)n1 [Compound 22, 4-(2,2,2-trifluroethoxy)phenyl-N-(2-cyclobutyl-4-pyrimidinyl)acetamide] | 0% | 100% | 100% | 100% | 100% | 100% | 80% |
| O=C(Cc1ccc(Oc2ccc(F)cc2)cc1)Nc1ccnc(C2CCC2)n1 [Compound 23, 4-(4-fluorophenoxy)phenyl-N-(2-cyclobutyl-4-pyrimidinyl)acetamide] | 100% | 100% | 100% | 100% | 0% | 100% | 100% |
| CC(C)(C)c1nccc(NC(=O)Cc2ccc(OCC(F)(F)F)cc2)n1 [Compound 24, 4-(2,2,2-trifluroethoxy)phenyl-N-(2-(1,1-dimethylethyl)-4-pyrimidinyl)acetamide] | 100% | 100% | 90% | 0% | 100% | 60% | 0% |
| CC(C)(C)c1nccc(NC(=O)Cc2ccc(Oc3ccc(F)cc3)cc2)n1 [Compound 25, 4-(4-fluorophenoxy)phenyl-N-(2-(1,1-dimethylethyl)-4-pyrimidinyl)acetamide] | 100% | 100% | 100% | 100% | 100% | 100% | 100% |
| C=C(C)c1nccc(NC(=O)Cc2ccc(Oc3ccc(F)cc3)cc2)n1 [Compound 27, 4-(4-fluorophenoxy)phenyl-N-(2-(1-methylethenyl)-4-pyrimidinyl)acetamide] | 0% | 0% | 100% | 0% | 0% | 0% | 0% |
| O=C(Cc1ccc(OCC(F)(F)F)cc1)Nc1ccncn1 [Compound 28, 4-(2,2,2-trifluroethoxy)phenyl-N-(4-pyrimidinyl)acetamide] | 0% | 0% | 100% | 0% | 0% | 0% | 0% |
| O=C(Cc1ccc(Oc2ccc(Cl)cc2)cc1)Nc1ccnc(C2CC2)n1 [Compound 29, 4-(4-chlorophenoxy)phenyl-N-(2-cyclopropyl-4-pyrimidinyl)acetamide] | 100% | 100% | 100% | 0% | 0% | 100% | 100% |
| CC(C)c1nccc(NC(=O)Cc2ccc(OCC(F)(F)F)cc2)n1 [Compound 30, 4-(2,2,2-trifluroethoxy)phenyl-N-(2-(1-methylethyl)-4-pyrimidinyl)acetamide] | 90% | 100% | 100% | 100% | 100% | 100% | 80% |
| CC(C)c1nccc(NC(=O)Cc2ccc(Oc3ccc(F)cc3)cc2)n1 [Compound 31, 4-(4-fluorophenoxy)phenyl-N-(2-(1-methylethyl)-4-pyrimidinyl)acetamide] | 100% | 100% | 100% | 0% | 0% | 100% | 100% |
| CCc1nccc(NC(=O)Cc2ccc(-c3ccccc3)cc2)n1 [Compound 40] | 40% | 20% | 60% |  |  | 0% |  |
| CCCCCc1ccc(CC(=O)Nc2ccnc(CC)n2)cc1 [Compound 41, 4-pentylphenyl-N-(2-ethyl-4-pyrimidinyl)acetamide] | 40% | 100% | 100% |  |  | 100% |  |
| CCc1nccc(NC(=O)Cc2ccc(OC(F)F)cc2)n1 [Compound 42, 4-difluromethoxy-N-(2-ethyl-4-pyrimidinyl)acetamide] | 0% | 40% | 100% |  |  | 100% |  |
| CCc1nccc(NC(=O)Cc2ccc(OCC(F)(F)C(F)F)cc2)n1 [Compound 43, 4-(2,2,3,3-tetrafluropropoxy)phenyl-N-(2-ethyl-4-pyrimidinyl)acetamide] | 60% | 60% | 100% |  |  | 100% |  |
| CCCCOc1ccc(CC(=O)Nc2ccnc(CC)n2)cc1 [Compound 44, 4-butoxyphenyl-N-(2-ethyl-4-pyrimidinyl)acetamide] | 0% | 100% | 100% |  |  | 90% |  |
| CCc1nccc(NC(=O)Cc2ccc(C(C)C)cc2)n1 [Compound 45, 4-(1-methylethyl)phenyl-N-(2-ethyl-4-pyrimidinyl)acetamide] | 0% | 100% | 100% |  |  | 100% |  |
| CCc1nccc(NC(=O)COc2ccc(C(C)C)cc2)n1 [Compound 46, 4-(1-methylethyl)phenoxy-N-(2-ethyl-4-pyrimidinyl)acetamide] | 0% | 0% | 0% |  |  | 0% |  |
| CCc1nccc(NC(=O)Cc2ccc(Oc3ccccc3)cc2)n1 [Compound 47, 4-phenoxyphenyl-N-(2-ethyl-4-pyrimidinyl)acetamide] | 40% | 100% | 100% |  |  | 100% |  |
| CCc1nccc(NC(=O)Cc2ccc(C(C)(C)C)cc2)n1 [Compound 48, 4-(1,1-dimethylethyl)phenyl-N-(2-ethyl-4-pyrimidinyl)acetamide] | 20% | 0% | 100% |  |  | 100% |  |
| CCc1nccc(NC(=O)Cc2ccc(Oc3ccc(C(C)=O)cc3)cc2)n1 [Compound 49, 4-(4-acetylphenoxy)phenyl-N-(2-ethyl-4-pyrimidinyl)acetamide] | 40% | 100% | 100% |  |  | 100% |  |
| CCc1nccc(NC(=O)Cc2ccc3ccccc3c2)n1 [Compound 50, 2-naphthyl-N-(2-ethyl-4-pyrimidinyl)acetamide] | 40% | 60% | 100% |  |  | 100% |  |
